From paper PMC9477487, “Multitarget drugs as potential therapeutic agents for alzheimer’s disease. A new family of 5-substituted indazole derivatives as cholinergic and BACE1 inhibitors” (Journal of Enzyme Inhibition and Medicinal Chemistry, 2022)

Tests used:
Raw 264.7 cells [1] = test: Cell viability (MTT) of Raw 264.7 cells; format: cell-based
Method: (§1) Cell viability was measured using the 3-(4,5-Dimethylthiazol-2-yl)-2,5-diphenyltetrazolium bromide (MTT) assay, based on the ability of viable cells to reduce yellow MTT to blue formazan. Briefly, cells cultured in 96-well plates and treated with the indicated compounds for 16 h were incubated with MTT (0.5 mg/ml, 4 h) and subsequently solubilised in DMSO. The extent of reduction of MTT was quantified by absorbance measurement at 595 nm according to the manufacturer’s protocol.

BuChE from human serum = target: T1, BuChE from human serum (Homo sapiens, UniProt P06276); test: In vitro BuChE inhibition assay (Ellman); format: biochemical; details: for IC50: mean ± SEM, 3 experiments, butyrylthiocholine substrate
T1 construct: BuChE from human serum (EC 3.1.1.8); purchased Sigma; host or cells: human serum (tissue-derived)
T1 sequence (P06276 29-602): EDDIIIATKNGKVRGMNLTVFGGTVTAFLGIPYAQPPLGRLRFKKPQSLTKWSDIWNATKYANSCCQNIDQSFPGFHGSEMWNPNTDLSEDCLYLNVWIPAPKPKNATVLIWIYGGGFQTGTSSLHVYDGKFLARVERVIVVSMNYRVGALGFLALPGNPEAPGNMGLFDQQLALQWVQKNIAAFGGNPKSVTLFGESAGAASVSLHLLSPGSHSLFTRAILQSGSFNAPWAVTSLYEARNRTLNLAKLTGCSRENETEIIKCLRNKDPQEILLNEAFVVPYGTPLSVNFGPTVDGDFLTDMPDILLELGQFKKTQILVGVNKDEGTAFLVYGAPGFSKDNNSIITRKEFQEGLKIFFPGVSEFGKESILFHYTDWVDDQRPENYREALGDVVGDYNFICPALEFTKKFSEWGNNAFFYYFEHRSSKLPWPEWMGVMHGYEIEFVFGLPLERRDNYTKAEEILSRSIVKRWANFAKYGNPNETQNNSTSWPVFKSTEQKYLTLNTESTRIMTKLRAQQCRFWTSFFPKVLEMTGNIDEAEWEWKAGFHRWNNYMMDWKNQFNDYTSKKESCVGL
Method: (§2) AChE from human erythrocytes (EC 3.1.1.7) (min. 500 units/mg protein in buffered aqueous solution) and BuChE from human serum (EC 3.1.1.8) (3 units/mg protein, lyophilised powder) were purchased from Sigma.
(§3) Compounds were evaluated in 100 mM phosphate buffer pH 8.0 at 30 °C, using acetylthiocholine and butyrylthiocholine (0.4 mM) as substrates, respectively. In both cases, 5,5-dithio-bis(2-nitrobenzoic) acid (DTNB, Ellman’s reagent, 0.2 mM) was used and the values of IC50 were calculated by UV spectroscopy from the absorbance changes at 412 nm. Experiments were performed in triplicate.

BACE1 = target: T2, BACE1 (Homo sapiens, UniProt P56817); test: BACE1 enzymatic FRET assay; format: biochemical; details: for IC50: pH 4.5, mean ± SEM
T2 construct: purchased Invitrogen
T2 sequence (P56817 46-501): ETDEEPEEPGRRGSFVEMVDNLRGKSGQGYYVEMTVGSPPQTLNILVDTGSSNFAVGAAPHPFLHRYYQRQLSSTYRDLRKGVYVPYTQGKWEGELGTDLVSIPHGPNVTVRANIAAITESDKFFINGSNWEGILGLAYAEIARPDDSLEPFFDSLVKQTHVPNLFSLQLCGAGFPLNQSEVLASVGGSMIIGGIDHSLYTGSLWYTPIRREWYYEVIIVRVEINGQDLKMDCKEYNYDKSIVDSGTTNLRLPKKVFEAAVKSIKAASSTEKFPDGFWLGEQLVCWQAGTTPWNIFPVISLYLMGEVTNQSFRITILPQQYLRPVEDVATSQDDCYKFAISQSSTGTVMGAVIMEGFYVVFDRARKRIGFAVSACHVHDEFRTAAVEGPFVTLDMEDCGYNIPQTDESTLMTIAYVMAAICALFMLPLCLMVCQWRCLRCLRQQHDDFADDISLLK
Method: The BACE1 ([…]) assay was carried out according to the manufacturer’s described protocol which is available from Invitrogen[36].
Briefly, BACE1 in vitro assays were carried out using fluorescence resonance energy transfer (FRET). An APP-based peptide substrate (rhodamine-EVNLDAEFK-quencher, Km of 20 μM) carrying the Swedish mutation and containing rhodamine as a fluorescence donor and a quencher acceptor at each end was used. The intact substrate is weakly fluorescent and becomes highly fluorescent upon enzymatic cleavage. The assays were conducted in 50 mM sodium acetate buffer, pH 4.5, at a final enzyme concentration of 1 U/mL. Inhibitor screening was performed at 10 μM. The mixture was incubated for 60 min at 25 °C under dark conditions and then stopped with 2.5 M sodium acetate. Fluorescence was measured with a FLUOstar Optima (BMG Labtechnologies GmbH, Offenburg, Germany) microplate reader at 545 nm excitation and 585 nm emission. The assay kit was validated by the manufacturer.

[2] = Oxygen radical absorbance capacity assay (ORAC-FL); details: pH 7.4
Method: The ORAC-FL method of Ou et al.[37], partially modified by Dávalos et al.[38], was followed, using a FLUOstar Optima (BMG Labtechnologies GmbH, Offenburg, Germany) with 485 excitation and 520 emission filters. 2,2′-Azobis-(amidinopropane) dihydrochloride (AAPH), (±)-6-hydroxy-2,5,7,8-tetramethylchromane-2-carboxylic acid (trolox) and fluorescein (FL) were purchased from Sigma-Aldrich. The reaction was carried out in 75 mM phosphate buffer (pH 7.4) and the final reaction mixture was 200 µL. […] The mixture was pre-incubated for 30 min at 37 °C and then AAPH solution (25 µL, 240 mM) was added rapidly using a multichannel pipette. The microplate was immediately placed in the reader and the fluorescence was recorded every 90 s. for 90 min. The microplate was automatically shaken prior to each reading. Samples were measured at four different concentrations (10^−1 µM). A blank (FL + AAPH in phosphate buffer) instead of the sample solution and four calibration solutions using trolox (10^−1 µM) was also used in each assay. All of the reaction mixtures were prepared in duplicate and at least three independent assays were performed for each sample. Raw data were exported from the Fluostar optima Software to an Excel sheet for further calculations. Antioxidant curves (fluorescence vs. time) were represented and the area under the curve (AUC) is calculated as: AUC =f1/f0+fi/f0+ … +f34/f0+ (f35/f0) where fo = initial fluorescence reading at 0 min and fi = fluorescence reading at time i. The net AUC is obtained by subtracting the AUC of the blank from that of a sample. The relative Trolox equivalent ORAC value is calculated as: Relative ORAC value =[(AUC sample - AUC blank)/(AUCT rolox - AUC blank)](molarity of trolox/molarity of sample)

[3] = target: T3, AChE from human erythrocytes (Homo sapiens, UniProt P22303); test: In vitro AChE inhibition assay (Ellman); format: biochemical; details: for inhibition at 10 µM: 10 µM compound, read-out: AChE percentage of inhibition at 10 µM; for IC50: mean ± SEM, 3 experiments, acetylthiocholine substrate
T3 construct: AChE from human erythrocytes (EC 3.1.1.7); purchased Sigma; host or cells: human erythrocytes (tissue-derived)
T3 sequence (P22303 32-617 isoform P22303-2 limits assumed): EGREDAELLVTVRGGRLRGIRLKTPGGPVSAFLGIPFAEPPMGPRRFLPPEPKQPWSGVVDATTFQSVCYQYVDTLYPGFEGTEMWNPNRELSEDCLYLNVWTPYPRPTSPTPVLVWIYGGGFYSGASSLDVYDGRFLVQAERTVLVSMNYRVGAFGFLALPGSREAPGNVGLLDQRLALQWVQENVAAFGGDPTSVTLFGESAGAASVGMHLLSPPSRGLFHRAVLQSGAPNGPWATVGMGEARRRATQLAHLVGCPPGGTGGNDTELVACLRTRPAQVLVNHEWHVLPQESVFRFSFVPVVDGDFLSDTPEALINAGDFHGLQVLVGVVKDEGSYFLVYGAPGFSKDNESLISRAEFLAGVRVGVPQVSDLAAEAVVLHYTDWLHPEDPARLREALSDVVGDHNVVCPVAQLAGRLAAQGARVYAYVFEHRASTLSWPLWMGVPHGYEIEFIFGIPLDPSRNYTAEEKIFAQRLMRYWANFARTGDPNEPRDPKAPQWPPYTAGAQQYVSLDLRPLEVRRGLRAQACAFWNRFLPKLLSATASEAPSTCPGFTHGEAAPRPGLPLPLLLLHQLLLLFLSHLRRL
Method: as §2, §3

[4] = tested on: SH-SY5Y human neuroblastoma cells; test: Amyloid-beta peptide neurotoxicity, neuroprotection in SH-SY5Y cells (MTT); format: cell-based; details: 24 h
Method: SH-SY5Y human neuroblastoma cells were obtained from American Type Culture Collection. Cells were maintained at 37 °C in a 5% CO2 humidified atmosphere in DMEM-Glutamax supplemented with heat-inactivated 10% foetal bovine serum and 1% penicillin/streptomycin. All experiments with Aβ1–42 used DMEM-Glutamax without phenol in the media.
The compounds were dissolved in 100% dimethyl sulphoxide (DMSO) as a 10 mM stock and diluted with culture medium to final concentrations. Aβ1–42 powder (AnaSpec, Inc., San Jose, CA) was dissolved in acetic acid (0.1 M) obtaining a 2 μg/μL stock. Then Aβ1-42 was oligomerised in no phenol red DMEM for 24 h at 37 °C. The final concentration in cells cultures was 5 μM. All dilutions of stock were prepared fresh before addition to the culture medium.
SH-SY5Y cells were treated with 5 μM Aβ1-42 for 24 h and pre-treated or not for 1 h with increasing concentrations of compounds. After treatment, cultures were processed for a cell viability assay using MTT assay.
as §1

BuChE = target: T4, BuChE (Homo sapiens, UniProt P06276); test: Kinetic study of BuChE inhibition (Lineweaver-Burk plots); format: biochemical; design: key to Type of Inhibition (BuChE): M: mixed
T4 construct: BuChE from human serum (EC 3.1.1.8); purchased Sigma; host or cells: human serum (tissue-derived)
T4 sequence (P06276 29-602): as the sequence (P06276 29-602) above
Method: To investigate the mechanism of action of the compounds on AChE or BuChE, a kinetic analysis was performed. The experiments were carried out using combinations of four substrate concentrations and three inhibitor concentrations. Double-reciprocal Lineweaver–Burk plots of the data obtained, in which each point is the mean of three different experiments, were analysed.
Competitive inhibitors have the same y-intercept as uninhibited enzymes (since Vmax is unaffected by competitive inhibitors the inverse of Vmax also doesn’t change), but there are different slopes and x-intercepts. Non-competitive inhibition produces plots with the same x-intercept as uninhibited enzyme (Km is unaffected) but different slopes and y-intercepts. Uncompetitive inhibition causes different intercepts on both the y- and x-axes, but the same slope. Mixed inhibitors cause intersects above or below the x-axes.
The Ki, values were determined by fitting the kinetic data to a competitive, non-competitive, or mixed inhibition model by nonlinear regression analysis using GraphPad Prism[35].

Raw 264.7 cells [5] = test: Nitrite determination (Griess) in LPS-stimulated Raw 264.7 cells; format: cell-based, murine; details: LPS 0.4 µg/mL, 24 h
Method: The content of nitrite, one of the end-products of NO oxidation, was monitored by a procedure based on the diazotidation of nitrite by sulphanilic acid (Griess reaction). Twenty-four hours after the incubation of Raw 264.7 cells with 0.4 µg/mL of LPS, 50 µL of sample aliquots were mixed with 50 µL of Griess reagent in 96-well plates and incubated at room temperature for 15 min. The absorbance (520 nm) of the mixture was measured on a microplate reader. The concentration of nitrite was calculated with the linear equation derived from the standard curve generated by known concentrations of sodium nitrite.

[6] = 10 µM compound added 1 h prior to 5 µM Aβ

Row | SMILES | Cytotoxicity on Raw 264.7 cells viability (Raw 264.7 cells [1]; 10 µM) | IC50 (BuChE from human serum) [µM] | IC50 (BACE1) [µM] | ORAC (Oxygen Radical Absorbance Capacity) [2] | inhibition at 10 µM [3] [%] | IC50 [3] [µM] | Aβ-induced death of SH-SY5Y cells [4, 6] | Type of Inhibition (BuChE) (BuChE) | Aβ-induced death of SH-SY5Y cells ([4]; 5 µM compound added 1 h prior to 5 µM Aβ) | LPS-induced NO production (extracellular nitrite) (Raw 264.7 cells [5]; 10 µM compound) | Cytotoxicity on Raw 264.7 cells viability (Raw 264.7 cells [1]; 10, 20, 30, 40 µM) | LPS-induced NO production (extracellular nitrite) (Raw 264.7 cells [5]; 20, 30 and 40 µM compound) | BuChE percentage of inhibition at 10 µM (BuChE from human serum; 10 µM compound) | inhibition at 10 µM (BuChE from human serum; 10 µM compound, read-out: BuChE percentage of inhibition at 10 µM) [%] | inhibition at 10 µM (BACE1; pH 4.5, 10 µM compound, read-out: BACE1 percentage of inhibition at 10 µM) [%] | BuChE inhibition mode of action (in words) (BuChE)
1 | c1ccc(Cn2nc(OCc3cccc4ccccc34)c3cc(NCCCN4CCCCC4)ccc32)cc1 [Compound 1] | show cytotoxicity | 3.2 ± 0.5 | 2.7 ± 0.1 | 1.1 ± 0.1 μmol of Trolox equivalents/μmol of tested compound | 23 | > 10 | significantly reduced cell death | M | – | – | – | – | – | – | – | –
2 | Clc1cccc(Cn2nc(OCc3ccccc3)c3cc(NCCCN4CCCCC4)ccc32)c1Cl [Compound 2] | show cytotoxicity | 0.4 ± 0.04 | 3.2 ± 0.2 | 0.7 ± 0.1 μmol of Trolox equivalents/μmol of tested compound | 27 | > 10 | – | M | able to prevent cell death | – | – | – | – | – | – | –
3 | Clc1ccc(Cn2nc(OCc3cccc4ccccc34)c3cc(NCCCN4CCCCC4)ccc32)cc1Cl [Compound 3] | did not show any significant cytotoxic effect | 0.17 ± 0.05 | 2.1 ± 0.2 | 0.6 ± 0.1 μmol of Trolox equivalents/μmol of tested compound | 38 | > 10 | significantly reduced cell death | M | – | able to attenuate LPS-induced NO production | – | – | – | – | – | –
4 | Clc1ccc(Cn2nc(OCc3ccc4ccccc4c3)c3cc(NCCCN4CCCCC4)ccc32)cc1Cl [Compound 4] | show cytotoxicity | 0.57 ± 0.2 | 1.9 ± 0.1 | 0.7 ± 0.1 μmol of Trolox equivalents/μmol of tested compound | 26 | > 10 | significantly reduced cell death | M | – | – | – | – | – | – | – | –
5 | c1ccc2cc(COc3nn(Cc4ccc5ccccc5c4)c4ccc(NCCCN5CCCCC5)cc34)ccc2c1 [Compound 6] | – | 3.7 ± 0.3 | 3.4 ± 0.2 | 0 μmol of Trolox equivalents/μmol of tested compound | – | 9 ± 1 | significantly reduced cell death | M | – | able to attenuate LPS-induced NO production | did not show any significant cytotoxic effect | inhibited NO production | – | – | – | –
6 | Nc1ccc2c(c1)c(OCc1cccc3ccccc13)nn2Cc1ccccc1 [Compound 32] | – | > 10 | > 10 | 1.0 ± 0.1 μmol of Trolox equivalents/μmol of tested compound | – | > 10 | – | – | – | – | – | – | – | – | – | –
7 | Nc1ccc2c(c1)c(OCc1cccc3ccccc13)nn2Cc1ccc(Cl)cc1 [Compound 33] | – | > 10 | 5.8 ± 0.5 | 1.0 ± 0.1 μmol of Trolox equivalents/μmol of tested compound | – | > 10 | – | – | – | – | – | – | – | – | – | –
8 | Nc1ccc2c(c1)c(OCc1cccc3ccccc13)nn2Cc1ccc(Cl)c(Cl)c1 [Compound 34] | – | > 10 | – | 0.33 ± 0.05 μmol of Trolox equivalents/μmol of tested compound | – | 3.5 ± 0.6 | – | – | – | – | – | – | very slight inhibition | 32 | 72 | –
9 | COc1cc2c(cc1OC)C(=O)C(CC1CCN(Cc3ccccc3)CC1)C2 (stereo not drawn) [donepezil, reference compound] | – | – | – | – | – | – | – | – | – | – | – | – | – | – | – | mixed type
